In patent US10758584B2, “Topical formulation for promoting wound healing” (Oneness Biotech Co. LTD, priority 2016, dated 2020):

Test: clinical
Details: human, in vivo
Method: […]. The PA and CA extracts in the topical formulation were prepared according to the methods described herein. The topical formulation is cream-based and further comprises cetostearyl alcohol (about 1.0-10% by weight, for example, about 3.5-6.5% by weight), white petrolatum and liquid petrolatum 350 cps (about 5%-30% by weight in total, for example, about 5-15% by weight in total), methyl paraben and propyl paraben (about 0.005% to 0.2% by weight in total, for example, 0.005-0.2% by weight in total), emulsifiers such as Span® 60 and Tween® 60 (about 0.5-10% by weight in total, for example, about 0.5-5% by weight in total), and one or more solvent such as propylene glycol (about 2-20% by weight, for example, about 4-10% by weight). The extracts were formulated in a cream-based topical formulation that additionally contains liquid petrolatum, propylene glycol, cetyl stearyl alcohol, white petrolatum, Span® 60, Tween® 60, propyl paraben, methyl paraben, and water.
A total of 12 patients completed the study. Each subject received one dose of the cream formulation on Day 1 followed by the blood sampling collection, then twice per day from Day 2 to Day 13, and a further blood sampling collection was scheduled on Day 14 after the final dose. […].

concentration at 1 day: ≤ 0.0124 ng/mL
concentration at 14 day: ≤ 0.017 ng/mL
number of patients with detectable plasma concentrations (1 day): 2
number of patients with detectable plasma concentrations (14 day): 4
Compound: COc1ccc(-c2cc(=O)c3c(O)c(OC)c(OC)cc3o2)cc1 [salvigenin]
